According to patent US20090117599A1, “METHOD OF DETECTING SUGAR CHAINS HAVING GlcNAc TRANSFERRED BY GnT-V” (priority 2005, published 2009):

What was measured:
[1] = target: Boletopsis leucomelas lectin (BLL); assay: Frontal affinity chromatography (FAC) on immobilized BLL lectin column; type: binding; settings: for affinity of BLL for pNP glycosides (in words): pNP-sugar chain 5 μM, FIG. 3(A) right
Protocol: (§1) It is preferable to use the frontal affinity chromatography (FAC) method for measuring the binding constant between lectin and sugar chain.
(§2) […] each of pyridylaminated sugar chains (PA-sugar chains) is continuously poured into two buffered lectin columns at a flow rate of 0.125 ml/min. The PA-sugar chain has been diluted to the concentration (2.5 nM) which is sufficiently lower than the dissociation constant (Kd) of a lectin in a buffer solution for analysis (10 mM Tris-HCl buffer solution (pH 7.4) containing 0.8% NaCl). Elution of the PA-sugar chain from the column is detected with use of a fluorescence detector (with exciting wavelength/fluorescence wavelength: 310 nm/380 nm).
(§3) Then, the binding constant (Ka) between the sugar chain and the lectin is determined from V-V0 and Bt based on the FAC reference equation.
(§4) BLL was dissolved in 0.2M NaHCO3 buffer solution (pH 8.3) containing 0.5M NaCl, and bound with NHS-activated Sepharose (GE Healthcare Bioscience, Uppsala, Sweden) according to the operation manual of the manufacturer. The lectin-Sepharose was suspended in 10 mM Tris-HCl buffer solution (pH 7.4, TBS buffer solution) containing 0.8% NaCl, and filled in a miniature column (+2 mm×10 mm, 31.4 μl). A GSL-II lectin column was prepared in a similar manner.
(§5) A frontal affinity chromatography was carried out with use of an FAC automated analysis system (FAC-1, Shimadzu Corporation). More specifically, the lectin column prepared as described above was inserted in a stainless holder and connected to the FAC-1 system.
(§6) The flow rate and column temperature were kept at 0.125 ml/min and 25 °C, respectively. […]
(§7) Eluates of pNP-sugar chain and PA-sugar chain were monitored by measuring UV (280 nm) and fluorescence (with the exciting wavelength 310 nm and the fluorescence wave length 380 nm). A front end eluate (i.e., V-V0) was measured with respect to a standard oligosaccharide (PA-lactose). In addition, the dissociation constant (Kd) was determined from V-V0 and Bt based on the FAC reference equation. Note that the binding constant Ka is determined by the equation Ka=1/Kd.
(§8) Analysis of the concentration dependency was carried out to measure the effective ligand concentration Bt. […] Next, V-V0 (the delay of the eluted front end) was calculated in accordance with the method developed by Arata (“Application of reinforced frontal affinity chromatography and advanced processing procedure to the study of the binding property of a Caenorhabditis elegans galectin”, J Chromatogr A. 905, 337-43). A Hofstee-type plot ((V-V0) vs. (V-V0) [A]0) was created, and Bt and Kd were respectively determined from the intercept and the slope of the approximate curve. […]

[2] = target: Griffonia simplicifolia lectin II (GSL-II) (Griffonia simplicifolia, UniProt Q41263); assay: Frontal affinity chromatography (FAC) on immobilized GSL-II lectin column; type: binding; settings: for affinity of GSL-II for pNP glycosides (in words): pNP-sugar chain 5 μM, FIG. 3(A) left
Chain of Griffonia simplicifolia lectin II (GSL-II) (Q41263 entry or part of it): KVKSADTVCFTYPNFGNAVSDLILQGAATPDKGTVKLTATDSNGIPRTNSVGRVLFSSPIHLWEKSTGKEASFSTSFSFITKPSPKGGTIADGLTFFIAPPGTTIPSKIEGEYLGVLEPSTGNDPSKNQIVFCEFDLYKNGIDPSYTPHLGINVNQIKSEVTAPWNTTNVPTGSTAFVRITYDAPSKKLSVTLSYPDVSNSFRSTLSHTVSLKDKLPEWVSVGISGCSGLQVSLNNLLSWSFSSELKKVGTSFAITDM
Protocol: as §1, §2, §3, §4, §5, §6, §7, §8

SMILES: CC(=O)N[C@H]1[C@@H](Oc2ccc([N+](=O)[O-])cc2)O[C@H](CO)[C@H](O)[C@@H]1O[C@@H]1O[C@H](CO)[C@H](O)[C@H](O)[C@H]1O [Galβ1-3GalNAcα-pNP, Galβ1-3 GalNAcα-pNP]
- Ka ([1]; pNP derivatives (5 μM), FAC, 25 C, TBS pH 7.4): 90000 M⁻¹
- affinity of BLL for pNP glycosides (in words) [1]: remarkable affinity

SMILES: CC(=O)N[C@H]1[C@@H](Oc2ccc([N+](=O)[O-])cc2)O[C@H](CO)[C@@H](O)[C@@H]1O [GlcNAcα-pNP]
- Kd [2]: 7.14 µM
- affinity of GSL-II for pNP glycosides (in words) [2]: strongest affinity
- affinity of BLL for pNP glycosides (in words) [1]: did not show remarkable affinity

SMILES: CC(=O)N[C@H]1[C@H](Oc2ccc([N+](=O)[O-])cc2)O[C@H](CO)[C@@H](O)[C@@H]1O [GlcNAcβ-pNP]
- binding relative to that of the other anomer ([2]; GSL-II, pNP glycosides): 1/7
- affinity of GSL-II for pNP glycosides (in words) [2]: remarkable affinity
- affinity of BLL for pNP glycosides (in words) [1]: did not show remarkable affinity
